Data reported in patent publication US9656981B2, “Peripherally-acting cannabinoid receptor agonists for chronic pain” (The Regents of the University of California, priority 2012, dated 2017).
Entries after “also recorded” stand apart in the source; their conditions may differ. Like-named read-outs stand apart in the source and are kept apart here.

Experiments:
rats [1] = assay: Rotarod test of the tetrad; type: in vivo, rat
Procedure: Rats were tested for motor function and the ataxic effects of novel drugs as described previously^151-153. To determine drug effects on motor coordination, rats are trained 72 h before the test (3 sessions 24 h apart) to remain for at least 180 s on a rotarod revolving at an acceleration of 4-40 revs over 5 min). Rats are tested immediately before vehicle or drug injections and tested again at 2, 6, 24 and 48 hrs after injection. The time for which the rats are able to remain on the rotarod is recorded up to a cut-off of 5 min.

human CB1R (hCB1R) = human CB1R (hCB1R) (Homo sapiens, UniProt P21554); assay: human CB1R (hCB1R) calcium flux assay; type: cell-based; settings: Table 1; read-out: Ca Flux % Emax
human CB1R (hCB1R), sequence (P21554 whole entry): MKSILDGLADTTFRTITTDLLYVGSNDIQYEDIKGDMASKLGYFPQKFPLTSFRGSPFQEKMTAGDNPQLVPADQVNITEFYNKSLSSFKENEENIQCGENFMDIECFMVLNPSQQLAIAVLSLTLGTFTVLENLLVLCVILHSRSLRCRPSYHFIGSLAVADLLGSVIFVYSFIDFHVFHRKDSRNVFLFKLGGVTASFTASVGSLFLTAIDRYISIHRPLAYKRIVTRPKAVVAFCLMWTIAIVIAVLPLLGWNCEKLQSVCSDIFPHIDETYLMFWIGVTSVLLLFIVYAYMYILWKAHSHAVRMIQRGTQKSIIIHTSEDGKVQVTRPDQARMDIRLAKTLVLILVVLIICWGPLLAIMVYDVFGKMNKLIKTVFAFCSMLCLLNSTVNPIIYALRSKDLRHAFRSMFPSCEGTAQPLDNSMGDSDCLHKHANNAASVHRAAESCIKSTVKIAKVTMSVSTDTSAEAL
Text: Compounds were first screened for: a) CB1R and CB2R binding, b) CB1R agonist activity using the human CB1R (hCB1R) calcium flux assay, and c) BBB permeability using the Madin-Darby canine kidney (MDCK-MDR1) cell line assay.
The calcium 3 dye assays were run according to manufacturer's specifications (http://www.moleculardevices.com/Products/Assay-Kits/GPCRs/FLIPR-Calcium.html) and as reported in our previous publications^112,113. Briefly, wells of black clear-bottom 96-well tissue culture-treated plates are seeded with 20,000 cells the afternoon before assay. The day of assay, the cells are incubated with the Ca^2+ indicator dye for 1 hr @ 37° C. For antagonist assays, the test compound is preincubated with the cells during the last 10 min of the dye incubation. Basal or unstimulated fluorescence intensity is recorded in the FlexStation @ 37° C. for 13 sec followed by the addition of test compound or CP 55,940 (depending on the assay endpoint). Fluorescence intensity is recorded for an additional 47 sec. The effect of test compound in each well is determined by subtracting the minimum from the maximum fluorescence during the 47-sec recording period.

rats [2] = assay: Tail-flick test of the tetrad; type: in vivo, rat; settings: 0.3 mg/kg, intraperitoneal
Text: A modified Hargreaves apparatus (Model 390, IITC Instr.) is used to measure tail-flick latency (TFL). Radiant heat is directed to a point 3 cm from the tail tip and the TFL observed and timed with a photo cell counter. The intensity of the radiant heat is adjusted for a baseline TFL of approximately 5-7 seconds for naïve rats, with a 25 s cutoff set to avoid tissue damage (see FIG. 3).

[3] = S9 fraction stability assay; type: in vitro ADME; settings: 30 min; rat liver S9, 10 μM
Procedure: Compounds are incubated at 10 μM in rat (male Sprague Dawley) liver S9 at 37° C. Each compound is prepared in ethanol at a concentration of 1 mM. An assay mixture containing S9 (1 mg protein/mL final concentration) and an NADPH regenerating system (NADP [1 mM final], glucose 6-phosphate [5 mM final] and glucose 6-phosphate dehydrogenase [1 U/mL final]) in a buffer consisting of 50 mM KPO4 phosphate buffer, pH 7.4 with 3 mM MgCl2 is prepared and preincubated at 37° C. for 5 min. A 10 μL volume of the 1 mM solution is added to 990 μL of assay mixture in a glass test tube @ 37° C. to initiate the assay. Samples (50 μL) are removed at 0, 15, 30, 60 and 120 min and immediately extracted with 3 volumes (150 μL) of methanol, centrifuged to pellet protein and supernatants transferred to LC/MS vials for analysis.

rats [4] = assay: Catalepsy (ring) test of the tetrad; type: in vivo, rat
Procedure: Catalepsy (ring) test. Catalepsy was determined with a ring immobility test^154, modified for rats^139, 153. Rats are placed with their forepaws on a horizontal metal ring (12 cm diameter) at a height that allows their hindpaws to just touch the bench surface. Immobility is recorded as the time for the rat to move off the ring with a 100 s cutoff. Rats are tested before vehicle/drug injections and again at various times after injection.

CB2R = CB2R (Homo sapiens, UniProt P34972); assay: CB2R radioligand displacement binding assay (CP55940 radioligand); settings: Table 1; CP55940 radioligand; read-out: CB2_KI_CP
CB2R, sequence (P34972 whole entry): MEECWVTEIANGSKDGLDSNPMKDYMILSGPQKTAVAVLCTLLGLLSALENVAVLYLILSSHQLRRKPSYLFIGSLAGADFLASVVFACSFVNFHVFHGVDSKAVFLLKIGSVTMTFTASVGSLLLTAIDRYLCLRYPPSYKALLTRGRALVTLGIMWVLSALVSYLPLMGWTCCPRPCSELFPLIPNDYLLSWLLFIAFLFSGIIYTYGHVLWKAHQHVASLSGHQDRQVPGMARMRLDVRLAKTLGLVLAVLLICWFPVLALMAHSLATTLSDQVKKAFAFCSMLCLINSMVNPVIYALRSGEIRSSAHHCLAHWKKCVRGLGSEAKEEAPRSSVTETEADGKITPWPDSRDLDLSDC

rats [5] = assay: Hypothermia test of the tetrad; type: in vivo, rat
Procedure: Rats are acclimated to a plastic restrainer apparatus (Model RTV-180 Braintree Scientific Inc.) on the day of testing by placing them in the restrainer twice for 5 min separated by 20 min. Baseline core temperature is taken before treatment, and the rectal temperature is measured again at various times after injection of the CB1R ligands.

CB1R = CB1R (Homo sapiens, UniProt P21554); assay: CB1R radioligand displacement binding assay (CP55940 radioligand)
CB1R, sequence (P21554 whole entry): as the sequence (P21554 whole entry) above
Procedure: Heterologous competition binding assays were performed to calculate receptor affinities. Unlabeled SR141716 or SR144528 were used as appropriate controls for non-specific binding (NSB) in the assay. Calculation of the equilibrium dissociation constant (Ki) was performed using the Cheng-Prusoff equation.

[6] = test system: CFA-induced mechanical allodynia; assay: CFA chronic inflammation, mechanical allodynia; type: in vivo, rat; settings: systemic injection
Procedure: Rats are placed in a plastic-walled cage (10×20×13 cm) with a metal mesh floor (0.6×0.6 cm holes) and allowed to acclimate for 10 min. The amount of pressure (g) needed to evoke a hindpaw withdrawal response is measured 4 times on each paw separated by 30-s intervals using a von Frey-type digital meter (Model 1601C, IITC Instr.). Results of 4 tests/session are averaged for each paw.
Compounds were tested in a well-established model of chronic inflammation. In this model, unilateral intraplantar injection of complete Freund's adjuvant (CFA) leads to long-lasting symptoms of mechanical allodynia and thermal hyperalgesia of the affected hindpaw, which is alleviated by local, […] administration of CB1R ligands^125, 155. […] This is consistent with the higher CB1R affinity of our novel compound 13339-145-35 (Compound 9, see Table 1) compared with the AstraZeneca AZ11713908 compound^125.

[7] = 0.3 mg/kg, intraperitoneal, listed as 13339-145-35

CCCc1ccc(/C=C2\C=C(CCN3CCOCC3)c3ccccc32)c2ccccc12 [Compound 9, 4-{2-[(1E)-1-[(4-propylnaphthalen-1-yl)methylidene]-1H-inden-3-yl]ethyl} morpholine]
effect in the rotarod assay (rats [1]; [7]): no effect; also recorded: complete lack of effects | Rotarod % change from pre-drug (0.3 mg/kg) at 2-3 hr (rats [1]; 2-3 hr): 0% | Emax (human CB1R (hCB1R)): 108% | effect in the tail-flick assay (rats [2]): small effect | S9% remaining @ xy min [3]: 39% | effect in the catalepsy assay (rats [4]; [7]): no effect; also recorded: complete lack of effects | Catalepsy % change from pre-drug (0.3 mg/kg) at 1-3 hrs (rats [4]; 1-3 hrs): 0% | Ki (CB2R): 1 nM | effect in the hypothermia assay (rats [5]; 0.3 mg/kg, intraperitoneal): no effect | Hypothermia % change from predrug (0.3 mg/kg) at 2-3 hr (rats [5]; 2-3 hr): 0% | Ki (CB1R): 1 nM | Ki (CB1R; read-out: CB1R binding affinity (Ki)): 1.18 nM | effect on CFA-induced mechanical allodynia [6]: small but significant relief
